From paper PMC8589628, “Characterization and Antimicrobial Studies of Iturin-Like and Bogorol-Like Lipopeptides From Brevibacillus spp. Strains GI9 and SKDU10” (Frontiers in Microbiology, 2021)
Converted amounts (≈) assume the structure as drawn.

How the values were obtained:
C. albicans MTCC 1637 = experiment: MIC, microtiter plate dilution assay; format: cell-based, Candida albicans; set-up: key to MIC value: R = resistant; settings: 5 × 10^5 CFU/ml, 37°C, OD 600 nm after 48 h
Protocol: (§1) The antimicrobial activity of HPLC purified compounds was determined against various test strains including S. aureus MTCC 1430, Vibrio cholera MTCC 3904, Bacillus subtilis MTCC 121, Listeria monocytogenes MTCC 839, C. albicans MTCC 183, C. albicans MTCC 1637, C. albicans MTCC 227, C. tropicalis MTCC 184, C. glabrata MTCC 3019, and C. inconspicua MTCC 1074. Antimicrobial activity was also tested against clinical Candida strains and phytopathogenic fungi viz. Fusarium moniliforme MTCC 158, Alternaria brassicicola MTCC 2102 and Colletotrichum acutatum MTCC 1037. Bacterial and Candida test strains were grown in NB and yeast malt broth (YMB), respectively. Fungal test strains were grown in potato dextrose broth (PDB). Minimum inhibitory concentrations (MICs) of purified compounds were evaluated against test organisms by using a microtiter plate dilution assay. Mid-log-phase test strains (5 × 10^5 CFU/ml) were incubated in a 96-well plate with different concentrations of the lipopeptides for 24–48 h at 37°C (final volume of 200 μl). OD was measured at 600 nm after 24 and 48 h for bacteria and yeast, respectively, using an ELISA microplate reader (Thermo Scientific, United States). MIC against phytopathogenic fungi was determined using the 96-well microtiter plate method ([Sharma et al., 2020]).

C. albicans MTCC 227 = experiment: MIC, microtiter plate dilution assay; format: cell-based, Candida albicans; set-up: key to MIC value: R = resistant; settings: 5 × 10^5 CFU/ml, 37°C, OD 600 nm after 48 h
Protocol: as §1

[1] = system: A. brassicicola MTCC 2102; experiment: MIC against phytopathogenic fungi, 96-well microtiter plate method; format: cell-based, Alternaria brassicicola; set-up: key to MIC value: R = resistant
Protocol: as §1

C. albicans 400054 = experiment: MIC, microtiter plate dilution assay, clinical strain; format: cell-based, Candida albicans; set-up: key to MIC value: R = resistant; settings: YMB, 37°C, OD 600 nm after 48 h
Protocol: (§2) Brevibacillus sp. strains GI-9 and SKDU10 were known to produce class IId bacteriocins identified as laterosporulins a ([Singh et al., 2012]; [Baindara et al., 2016]). Both strains were grown on nutrient agar (NA, Himedia, India). All test strains used in this study were obtained from Microbial Type Culture Collection and Gene bank (MTCC), Chandigarh, India. Clinical Candida strains were obtained from the National Culture Collection of Pathogenic Fungi (NCCPF), PGIMER, Chandigarh, India, and all strains were grown on recommended media.
as §1

C. krusei 440009 = experiment: as above; format: cell-based; settings: Pichia kudriavzevii, YMB, 37°C, OD 600 nm after 48 h
Protocol: as §2, §1

C. parapsilosis 450030 = experiment: as above; format: cell-based; settings: Lodderomyces parapsilosis, YMB, 37°C, OD 600 nm after 48 h
Protocol: as §2, §1

C. rugosa 470141 = experiment: as above; format: cell-based; settings: Diutina rugosa, YMB, 37°C, OD 600 nm after 48 h
Protocol: as §2, §1

C. inconspicua MTCC 1074 = experiment: MIC, microtiter plate dilution assay; format: cell-based; settings: Pichia inconspicua, MTCC1074, YMB, 5 × 10^5 CFU/ml, 37°C, OD 600 nm after 48 h
Protocol: as §1

C. acutatum MTCC1037 = experiment: MIC against phytopathogenic fungi, 96-well microtiter plate method; format: cell-based, Colletotrichum acutatum; set-up: key: R = resistant; settings: PDB
Protocol: as §1

C. tropicalis MTCC 184 = experiment: MIC, microtiter plate dilution assay; format: cell-based; set-up: key to MIC value: R = resistant; settings: 5 × 10^5 CFU/ml, 37°C, OD 600 nm after 48 h
Protocol: as §1

C. glabrata MTCC 3019 = experiment: MIC, microtiter plate dilution assay; format: cell-based; set-up: key to MIC value: R = resistant; settings: 5 × 10^5 CFU/ml, 37°C, OD 600 nm after 48 h
Protocol: as §1

C. haemulonii MTCC 2766 = experiment: MIC, microtiter plate dilution assay; format: cell-based; set-up: key to MIC value: R = resistant; settings: 5 × 10^5 CFU/ml, 37°C, OD 600 nm after 48 h
Protocol: as §1

C. tropicalis 420024 = experiment: MIC, microtiter plate dilution assay, clinical strain; format: cell-based; set-up: key to MIC value: R = resistant; settings: YMB, 37°C, OD 600 nm after 48 h
Protocol: as §2, §1

C. auris 470126 = experiment: as above; format: cell-based; set-up: key to MIC value: R = resistant; settings: YMB, 37°C, OD 600 nm after 48 h
Protocol: as §2, §1

C. haemulonii 470125 = experiment: as above; format: cell-based; set-up: key to MIC value: R = resistant; settings: YMB, 37°C, OD 600 nm after 48 h
Protocol: as §2, §1

C. kefyr 410004 = experiment: as above; format: cell-based; set-up: key to MIC value: R = resistant; settings: YMB, 37°C, OD 600 nm after 48 h
Protocol: as §2, §1

F. moniliforme MTCC 158 = experiment: MIC against phytopathogenic fungi, 96-well microtiter plate method; format: cell-based, Fusarium moniliforme; settings: Fusarium verticillioides, MTCC158, PDB
Protocol: as §1

C. albicans MTCC 183 = experiment: MIC, microtiter plate dilution assay; format: cell-based, Candida albicans; settings: Candida albicans, MTCC183, YMB, 5 × 10^5 CFU/ml, 37°C, OD 600 nm after 48 h
Protocol: as §1

[2] = system: Vigna radiata (Moong) seeds; experiment: Seed germination-based phytotoxicity assay; settings: Vigna radiata seeds soaked in 0.1% solution (positive control), up to 3 days
Protocol: For hemolysis assay rabbit erythrocytes were treated with different concentrations of purified active antimicrobial compounds ranging from 250 to 750 μg/ml and incubated at 37°C for 24 h in a 5% CO2 incubator. The release of hemoglobin was monitored by measuring the absorbance at 540 nm in a microplate reader. PBS and 0.1% Triton X-100 were used as controls for 0 and 100% hemolysis, respectively ([Singh et al., 2021]). For phytotoxicity assay, sterilized Vigna radiata (Moong) seeds were treated with different concentrations of purified antimicrobial compounds (250–750 μg/ml). Seeds soaked in water and 0.1% mercuric chloride were used as negative and positive control, respectively. Seeds germination was observed up to 3 days of incubation.

OC(Cn1cncn1)(Cn1cncn1)c1ccc(F)cc1F [Fluconazole]
MIC value (C. albicans MTCC 1637; YMB): R | MIC value (C. albicans MTCC 227; YMB): R | MIC value ([1]; PDB): R | MIC value (C. albicans 400054): R | MIC (C. krusei 440009): 1 µg/mL (≈ 3.27 µM) | MIC (C. parapsilosis 450030): 10 µg/mL (≈ 32.7 µM) | MIC (C. rugosa 470141): 5 µg/mL (≈ 16.3 µM) | MIC (C. inconspicua MTCC 1074): 50 µg/mL (≈ 163 µM) | MIC value (C. acutatum MTCC1037): R | MIC value (C. tropicalis MTCC 184; YMB): R | MIC value (C. glabrata MTCC 3019; YMB): R | MIC value (C. haemulonii MTCC 2766; YMB): R | MIC value (C. tropicalis 420024): R | MIC value (C. auris 470126): R | MIC value (C. haemulonii 470125): R | MIC value (C. kefyr 410004): R | MIC (F. moniliforme MTCC 158): 10 µg/mL (≈ 32.7 µM)

C[C@@H]1[C@H](O)[C@@H](C)/C=C/C=C/C=C/C=C/C=C/C=C/C=C/[C@H](O[C@@H]2O[C@H](C)[C@@H](O)[C@H](N)[C@@H]2O)C[C@@H]2O[C@](O)(C[C@@H](O)C[C@@H](O)[C@H](O)CC[C@@H](O)C[C@@H](O)CC(=O)O[C@H]1C)C[C@H](O)[C@H]2C(=O)O [Amphotericin B]
MIC (C. albicans MTCC 1637; Candida albicans, MTCC1637, YMB): 5 µg/mL (≈ 5.41 µM) | MIC (C. albicans MTCC 227; Candida albicans, MTCC227, YMB): 5 µg/mL (≈ 5.41 µM) | MIC ([1]; Alternaria brassicicola, MTCC2102, PDB): 50 µg/mL (≈ 54.1 µM) | MIC (C. albicans 400054; Candida albicans): 5 µg/mL (≈ 5.41 µM) | MIC (C. krusei 440009): 5 µg/mL (≈ 5.41 µM) | MIC (C. parapsilosis 450030): 50 µg/mL (≈ 54.1 µM) | MIC (C. rugosa 470141): 5 µg/mL (≈ 5.41 µM) | MIC (C. inconspicua MTCC 1074): 10 µg/mL (≈ 10.8 µM) | MIC value (C. acutatum MTCC1037): R | MIC (C. tropicalis MTCC 184; Candida tropicalis, MTCC184, YMB): 35 µg/mL (≈ 37.9 µM) | MIC (C. glabrata MTCC 3019; Nakaseomyces glabratus, MTCC3019, YMB): 25 µg/mL (≈ 27.1 µM) | MIC (C. haemulonii MTCC 2766; Candidozyma haemuli, MTCC2766, YMB): 100 µg/mL (≈ 108 µM) | MIC (C. albicans MTCC 183): 5 µg/mL (≈ 5.41 µM) | MIC (C. tropicalis 420024; Candida tropicalis): 50 µg/mL (≈ 54.1 µM) | MIC (C. auris 470126; Candidozyma auris): 5 µg/mL (≈ 5.41 µM) | MIC (C. haemulonii 470125; Candidozyma haemuli): 50 µg/mL (≈ 54.1 µM) | MIC (C. kefyr 410004; Kluyveromyces marxianus): 50 µg/mL (≈ 54.1 µM) | MIC (F. moniliforme MTCC 158): 50 µg/mL (≈ 54.1 µM)

[Cl][Hg][Cl] [mercuric chloride]
Seed germination [2]: No germination
